Experimental data from BindingDB's records for doi:10.1016/0196-9781(94)90118-x (Tulane University, 1994).
Positions of bridges follow the written chain, without caps; N, C: chain ends. Non-standard residues stand in square brackets, D forms with d. Residues, ends and D or L forms follow the SMILES beside them. ξ: configuration not given here. 2Nal = N[C@@H](Cc1ccc2ccccc2c1)C(=O)O; d2Nal = N[C@H](Cc1ccc2ccccc2c1)C(=O)O; ξPhg = NC(C(=O)O)c1ccccc1; Abu = CC[C@H](N)C(=O)O

Experiments:
[1] = molecular target: Somatostatin receptor type 2 (Rattus norvegicus, UniProt P30680)
[2] = molecular target: Somatostatin receptor type 3 (Rattus norvegicus, UniProt P30936)
[3] = molecular target: T1, Somatostatin receptor type 5 (Rattus norvegicus, UniProt P30938)
T1 sequence (P30938 whole entry): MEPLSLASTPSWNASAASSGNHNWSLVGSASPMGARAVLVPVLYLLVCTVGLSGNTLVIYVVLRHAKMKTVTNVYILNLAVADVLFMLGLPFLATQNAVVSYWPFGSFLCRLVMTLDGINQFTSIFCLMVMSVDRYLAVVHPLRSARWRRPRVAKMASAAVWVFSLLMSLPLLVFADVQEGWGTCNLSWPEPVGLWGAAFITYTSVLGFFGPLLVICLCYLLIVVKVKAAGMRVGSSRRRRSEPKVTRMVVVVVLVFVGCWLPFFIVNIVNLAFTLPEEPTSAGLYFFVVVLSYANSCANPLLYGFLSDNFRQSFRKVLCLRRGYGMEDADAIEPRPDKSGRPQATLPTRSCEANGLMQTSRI

[4] = molecular target: Somatostatin receptor type 1 (Rattus norvegicus, UniProt P28646)
[5] = molecular target: Somatostatin receptor type 4 (Rattus norvegicus, UniProt P30937)
Chain of Somatostatin receptor type 4 (P30937 whole entry): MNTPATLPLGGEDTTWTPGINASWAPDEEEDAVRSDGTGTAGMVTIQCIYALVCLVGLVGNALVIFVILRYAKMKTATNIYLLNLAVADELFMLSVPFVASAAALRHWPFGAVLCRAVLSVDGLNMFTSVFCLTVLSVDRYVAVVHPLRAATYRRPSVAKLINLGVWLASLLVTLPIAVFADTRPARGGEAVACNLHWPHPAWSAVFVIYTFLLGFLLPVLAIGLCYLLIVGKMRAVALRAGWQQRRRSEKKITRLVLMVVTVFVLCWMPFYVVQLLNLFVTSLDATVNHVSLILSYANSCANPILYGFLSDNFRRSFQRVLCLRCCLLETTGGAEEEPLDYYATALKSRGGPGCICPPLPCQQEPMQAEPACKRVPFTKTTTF

Chain of Somatostatin receptor type 1 (P28646 whole entry): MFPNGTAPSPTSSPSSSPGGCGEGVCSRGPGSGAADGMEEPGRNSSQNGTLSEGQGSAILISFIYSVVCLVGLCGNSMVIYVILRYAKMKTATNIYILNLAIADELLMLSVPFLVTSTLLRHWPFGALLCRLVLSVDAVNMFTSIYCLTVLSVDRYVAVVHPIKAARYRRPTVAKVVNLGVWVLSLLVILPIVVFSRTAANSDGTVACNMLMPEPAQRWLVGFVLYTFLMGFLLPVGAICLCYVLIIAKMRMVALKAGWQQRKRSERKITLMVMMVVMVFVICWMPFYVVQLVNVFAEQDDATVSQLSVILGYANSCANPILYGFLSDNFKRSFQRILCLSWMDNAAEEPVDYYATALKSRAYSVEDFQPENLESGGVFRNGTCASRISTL
Chain of Somatostatin receptor type 2 (P30680 whole entry): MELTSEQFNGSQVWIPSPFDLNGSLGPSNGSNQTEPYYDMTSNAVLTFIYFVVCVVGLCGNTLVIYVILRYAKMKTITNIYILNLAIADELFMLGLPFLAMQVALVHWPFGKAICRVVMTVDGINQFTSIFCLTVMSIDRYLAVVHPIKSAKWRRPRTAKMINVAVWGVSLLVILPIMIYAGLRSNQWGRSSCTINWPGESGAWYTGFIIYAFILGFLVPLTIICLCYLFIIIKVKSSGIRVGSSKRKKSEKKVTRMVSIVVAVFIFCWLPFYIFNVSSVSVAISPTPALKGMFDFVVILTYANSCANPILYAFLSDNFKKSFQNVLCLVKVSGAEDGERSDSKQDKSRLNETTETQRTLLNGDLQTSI
Chain of Somatostatin receptor type 3 (P30936 whole entry): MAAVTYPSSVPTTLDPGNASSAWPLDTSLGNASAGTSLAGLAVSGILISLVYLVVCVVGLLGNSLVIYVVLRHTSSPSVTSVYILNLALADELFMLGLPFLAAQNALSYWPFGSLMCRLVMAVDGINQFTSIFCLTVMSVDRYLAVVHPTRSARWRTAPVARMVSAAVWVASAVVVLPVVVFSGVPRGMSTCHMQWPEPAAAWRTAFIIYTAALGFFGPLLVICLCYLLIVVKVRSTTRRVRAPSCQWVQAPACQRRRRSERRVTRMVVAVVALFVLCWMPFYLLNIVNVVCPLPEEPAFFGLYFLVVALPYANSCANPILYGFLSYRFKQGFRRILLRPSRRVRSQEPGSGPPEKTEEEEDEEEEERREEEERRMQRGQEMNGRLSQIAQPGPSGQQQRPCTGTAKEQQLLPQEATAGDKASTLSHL

Structure (SMILES) | Ki [1] | Ki [2] | Ki [3] | Ki [4] | Ki [5]
CC(C)[C@@H]1NC(=O)[C@H](CCCCN)NC(=O)[C@@H](Cc2c[nH]c3ccccc23)NC(=O)[C@H](Cc2ccc(O)cc2)NC(=O)[C@@H](NC(=O)[C@H](N)Cc2ccc3ccccc3c2)CSSC[C@@H](C(=O)N[C@H](C(N)=O)[C@@H](C)O)NC1=O [D-Nal-Cys-Tyr-D-Trp-Lys-Val-Cys-Thr-NH2] | 1.6 nM | 4.9 nM | – | > 10000 nM | –
CC(C)[C@H](NC(=O)[C@H](CCCCN)NC(=O)[C@H](Cc1c[nH]c2ccccc12)NC(=O)[C@H](Cc1ccc(O)cc1)NC(=O)[C@@H](N)CS)C(=O)N[C@@H](CS)C(=O)N[C@H](C(N)=O)[C@@H](C)O [D-Nal-Cys-Tyr-D-Trp-Lys-Val-Cys-Thr-NH2] (H-CYWKVCT-NH2) | – | – | 1000 nM | – | –
CC[C@@H]1NC(=O)[C@H](CCCCN)NC(=O)[C@@H](Cc2c[nH]c3ccccc23)NC(=O)[C@H](Cc2ccc(O)cc2)NC(=O)[C@@H](NC(=O)[C@H](N)Cc2ccccc2)CSSC[C@@H](C(=O)N[C@@H](Cc2ccc3ccccc3c2)C(N)=O)NC1=O [D-Phe-Cys-Tyr-D-Trp-Lys-Abu-Cys-Nal-NH] (H-[dF]CY[dW]K[Abu]C[2Nal]-NH2; disulfide 2-7) | 0.01 nM | 11 nM | – | > 10000 nM | –

Results, then the molecule that gave them:

Ki [1] | Ki [2] | Ki [3] | Ki [4] | Ki [5] | Structure (SMILES)
32 nM | 0.42 nM | 18 nM | – | – | C[C@@H](O)[C@H](NC(=O)[C@H](Cc1ccccc1)NC(=O)[C@@H](NC(=O)[C@H](CCCCN)NC(=O)[C@@H](Cc1c[nH]c2ccccc12)NC(=O)[C@H](Cc1ccccc1)NC(=O)[C@H](Cc1ccccc1)NC(=O)[C@H](N)Cc1ccccc1)[C@@H](C)O)C(N)=O [CAS_133073-82-2] (H-[dF]FF[dW]KTFT-NH2)
1000 nM | 0.02 nM | 158 nM | > 10000 nM | 43 nM | CC(C)[C@H](NC(=O)[C@H](CCCCN)NC(=O)[C@@H](Cc1c[nH]c2ccccc12)NC(=O)[C@H](Cc1ccc(O)cc1)NC(=O)[C@H](Cc1ccccc1)NC(=O)[C@H](N)Cc1ccccc1)C(=O)N[C@@H](Cc1ccccc1)C(=O)N[C@H](Cc1ccc2ccccc2c1)C(N)=O [CAS_150155-61-6] (H-[dF]FY[dW]KVF[d2Nal]-NH2)
46 nM | 0.03 nM | – | > 10000 nM | 1.2 nM | CC(C)[C@H](NC(=O)[C@H](CCCCN)NC(=O)[C@@H](Cc1c[nH]c2ccccc12)NC(=O)[C@H](Cc1ccc(O)cc1)NC(=O)[C@H](Cc1ccccc1)NC(=O)[C@H](N)Cc1ccccc1)C(=O)N[C@@H](Cc1ccccc1)C(=O)N[C@H](C(N)=O)[C@@H](C)O [D-Phe-Phe-Tyr-D-Trp-Lys-Val-Phe-Thr-NH2] (H-[dF]FY[dW]KVFT-NH2)
– | – | 77 nM | – | – | CC(C)[C@H](NC(=O)[C@H](CCCCN)NC(=O)[C@H](Cc1c[nH]c2ccccc12)NC(=O)[C@H](Cc1ccc(O)cc1)NC(=O)[C@H](Cc1ccccc1)NC(=O)C(N)c1ccccc1)C(=O)N[C@@H](Cc1ccccc1)C(=O)N[C@H](C(N)=O)[C@@H](C)O (stereo partly drawn) [D-Phe-Phe-Tyr-D-Trp-Lys-Val-Phe-Thr-NH2] (H-[ξPhg]FYWKVFT-NH2)
